Measurements: publication PMC11134387, “Cancer-Stem-Cell Phenotype-Guided Discovery of a Microbiota-Inspired Synthetic Compound Targeting NPM1 for Leukemia” (JACS Au, 2024)

Legend:
[1] = tested on: primary HSCs from AML patients; test: CD34+ liquid HSC short-term culture, AML patients; assay type: cell-based; conditions: Homo sapiens
Method: Considering the inhibitory capacity of UCM-13369 on AML cell lines (shown in Figure 3A), the therapeutic potential was assessed in primary CD34+ cells from AML patients. Two ex vivo models were used from AML patients and healthy donors: CD34+ liquid HSC (hematopoietic stem cell) culture as a short-term model and CFU-E (colony-forming unit–erythroid) as a midterm model.
The test compound was diluted in PBS. […]
Primary cells. 1x10^6/mL total mononuclear bone marrow cells (as source of CD34+ HSCs) of healthy donors and AML patients were used. They were cultured using Stem SpanTM supplement with pencillin/streptomycin (500 U/ml), TPO (10 µg/mL), SCF (10 µg/mL), FLT3 (10 µg/mL), IL-6 (10 µg/mL) and IL-3 (10 µg/mL). After 24 h fresh medium was added. After 72 h in maintenance cells were ready to start the assays. All cells wer e maintained at 37 °C in a humidified incubator in an atmosphere of 5% CO2. […]

[2] = Plasma protein binding, equilibrium dialysis (RED); assay type: in vitro ADME; conditions: pH 7.4, mouse serum, read-out: Plasma protein binding, bound fraction (converted)
Method: Based on the encouraging results obtained in ex vivo models of AML, we further assessed the therapeutic potential of the new NPM1 inhibitor in vivo. Prior to the evaluation of the compound in an animal model of AML, in vivo pharmacokinetic studies were addressed. Following a single intraperitoneal administration of UCM-13369 at a dose of 25 mg/kg, levels of 200–600 μg/L were detected in mouse peripheral blood up to 6 h (Figure 6A). Plasma protein binding of the compound in mouse serum was measured using an equilibrium dialysis assay, indicating a bound fraction of 83 ± 1%. Next, the efficacy of the compound was evaluated in immunodeficient mice after injection of OCI-AML3-ffLuc-GFP cells as an AML animal model. […]
coupled to a liquid nanochromatography Easy nLC 1200 System (Thermo Scientific).
Once digested, mutant NPM1 C+ C-end sample w as injected into a EASY-Spray™ C18 column, and digestion peptides were separated by using a lineal phase gradi ent (A: 0.1% formic acid in water; B: 20% acetonitrile, 0.1% formic acid in water) for 120 min. Spectra were acquired in DDA m ode, analyzing the 10 higher intensity parent ions in each cycl e.
Proteome Discoverer (Thermo Scientific) was used to align the spectra with the C-end […]
Random exclusion of AIRs was set to 2%. […] Clusters were classifi ed according to H ADDOCK score and stru ctures w er e analyzed with UCSF ChimeraX).10 […]

**Q.** What does the source list for COc1ccc(C2Cc3[nH]c4ccccc4c3C(CCNCC3CC3)C2N)cc1 (centres unmarked) [4b, 4-{2-[(Cyclopropylmethyl)amino]ethyl}-2-(4-methoxyphenyl)-2,3,4,9-tetrahydro-1H-carbazol-3-amine]?
**A.** IC50 [1]: 1.88 µM; fraction unbound at 6 h [2]: 0.17
